Measurements reported in US20250304567A1, “PYRROLIDIONE DERIVATIVES AS INHIBITORS OF NF KAPPA B INDUCING KINASE” (priority 2022, published 2025).
pIC50: −log10 of the molar value.

Key:
[1] = test system: p-IKKa levels in L363 (NIK translocated multiple myeloma) cells; test: Effect of compounds on p-IKKa levels in L363 (NIK translocated multiple myeloma) cells (AlphaLISA SureFire Ultra p-IKKa Ser176/180); type: cell-based, human; details: Homo sapiens, L-363, p-IKKa levels in L363 cells; average if tested more than once; read-out: Assay 2 IC50
Summary of the method: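 Phospho-IKKa (Ser176/180) in lysates quantified by AlphaLISA after 6 h compound exposure, 11-point threefold dilutions, 0.3% DMSO. L363 cells were pre-stimulated overnight and assayed with 250 ng/ml BAFF and 10 μM MG132; % inhibition fitted sigmoidally for IC50, duplicate curves.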

[2] = target: Recombinant Human NF-kappaB-Inducing Kinase (NIK/MAP3K14) (Homo sapiens, UniProt Q99558); test: Inhibition of auto-phosphorylation of recombinant human NIK/MAP3K14 activity (AlphaScreen); type: biochemical; details: 5 μM ATP, 1 nM NIK, average if tested more than once
Sequence of Recombinant Human NF-kappaB-Inducing Kinase (NIK/MAP3K14) (Q99558 whole entry): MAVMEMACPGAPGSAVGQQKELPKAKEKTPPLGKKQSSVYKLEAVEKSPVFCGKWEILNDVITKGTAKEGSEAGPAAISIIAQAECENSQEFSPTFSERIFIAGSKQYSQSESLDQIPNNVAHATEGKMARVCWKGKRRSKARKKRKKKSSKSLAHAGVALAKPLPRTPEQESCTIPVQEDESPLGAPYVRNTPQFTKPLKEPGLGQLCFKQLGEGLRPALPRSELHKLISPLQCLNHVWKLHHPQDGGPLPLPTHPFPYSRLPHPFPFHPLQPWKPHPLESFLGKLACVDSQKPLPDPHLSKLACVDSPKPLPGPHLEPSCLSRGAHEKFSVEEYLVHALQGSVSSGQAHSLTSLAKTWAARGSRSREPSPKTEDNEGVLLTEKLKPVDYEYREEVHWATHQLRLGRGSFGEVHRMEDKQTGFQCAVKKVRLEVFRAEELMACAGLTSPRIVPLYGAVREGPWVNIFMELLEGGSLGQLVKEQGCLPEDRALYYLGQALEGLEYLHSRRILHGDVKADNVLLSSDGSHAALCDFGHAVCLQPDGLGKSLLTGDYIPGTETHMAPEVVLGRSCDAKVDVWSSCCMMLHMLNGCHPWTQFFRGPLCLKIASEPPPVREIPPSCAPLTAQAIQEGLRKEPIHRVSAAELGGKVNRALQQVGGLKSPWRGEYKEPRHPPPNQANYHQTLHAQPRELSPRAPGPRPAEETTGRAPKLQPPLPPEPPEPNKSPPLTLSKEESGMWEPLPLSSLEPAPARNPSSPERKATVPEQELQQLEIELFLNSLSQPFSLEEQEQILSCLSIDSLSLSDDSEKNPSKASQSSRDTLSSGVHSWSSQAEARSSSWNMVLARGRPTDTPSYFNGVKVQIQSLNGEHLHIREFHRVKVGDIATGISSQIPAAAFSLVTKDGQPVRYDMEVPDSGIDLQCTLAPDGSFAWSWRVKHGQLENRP
Summary of the method: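 AlphaScreen detection of phospho-Ser176/180 after 1 nM GST-NIK auto-phosphorylates for 2 h at 25 °C with 5 μM ATP (50 mM Tris pH 7.5, 0.7% DMSO). IC50s come from sigmoidal curves of % inhibition against log dose, using enzyme-free, ATP-free low controls and full-activity high controls.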

Structure (SMILES) | pIC50 [1] | pIC50 [2]
CN1CC[C@@](O)(c2cccc(-c3nc(-c4ccnc(NC5CCC(F)(F)CC5)n4)cs3)c2)C1=O [Example 241] | < 6.30 | > 7.00
COCCCNc1nccc(-c2csc(-c3cccc([C@]4(O)CCN(C)C4=O)c3)n2)n1 [Example 242] | < 6.30 | 6.30 to 7.00
CN1CC[C@@](O)(c2cccc(-c3nc(-c4ccnc(N[C@H]5CC[C@@H](C#N)CC5)n4)cs3)c2)C1=O [Example 243] | < 6.30 | > 7.00
Cc1cn(CC(F)(F)F)nc1Nc1nccc(-c2csc(-c3cccc([C@]4(O)CCN(C)C4=O)c3)n2)n1 [Example 245] | < 6.30 | < 6.30
CN1CC[C@@](O)(c2cccc(-c3nc(-c4ccnc(NCCCN5CCOCC5)n4)cs3)c2)C1=O [Example 246] | < 6.30 | < 6.30
Cc1csc(Nc2nccc(-c3csc(-c4cccc([C@]5(O)CCN(C)C5=O)c4)n3)n2)n1 [Example 247] | 6.30 to 7.00 | > 7.00
CN1CC[C@@](O)(c2cccc(-c3nc(-c4ccnc(Nc5nc(C(F)(F)F)cs5)n4)cs3)c2)C1=O [Example 248] | 6.30 to 7.00 | > 7.00
Cc1ncc(Nc2nccc(-c3csc(-c4cccc([C@]5(O)CCN(C)C5=O)c4)n3)n2)s1 [Example 249] | < 6.30 | < 6.30
CN1CC[C@@](O)(c2cccc(-c3nc(-c4ccnc(N[C@H]5CCOC5)n4)cs3)c2)C1=O [Example 250] | < 6.30 | > 7.00
CN1CC[C@@](O)(c2cccc(-c3nc(-c4ccnc(N[C@@H]5CCOC5)n4)cs3)c2)C1=O [Example 251] | < 6.30 | > 7.00
CN1CC[C@@](O)(c2cccc(-c3nc(-c4ccnc(N[C@H]5CC[C@H](O)C5)n4)cs3)c2)C1=O [Example 252] | < 6.30 | 6.30 to 7.00
CN1CC[C@@](O)(c2cccc(-c3nc(-c4ccnc(N[C@H]5CC[C@@H](O)C5)n4)cs3)c2)C1=O [Example 253] | < 6.30 | > 7.00
CN1CC[C@@](O)(c2cccc(-c3nc(-c4ccnc(N[C@H]5CCC[C@H](O)C5)n4)cs3)c2)C1=O [Example 254] | < 6.30 | 6.30 to 7.00
CN1CC[C@@](O)(c2cccc(-c3nc(-c4ccnc(N[C@H]5CCC[C@@H](O)C5)n4)cs3)c2)C1=O [Example 255] | < 6.30 | 6.30 to 7.00
CN1CC[C@@](O)(c2cccc(-c3nc(-c4ccnc(Nc5cc(C(F)(F)F)n(C)n5)n4)cs3)c2)C1=O [Example 256, (R)-3-Hydroxy-1-methyl-3-(3-(4-(2-((1-methyl-5-(trifluoromethyl)-1H-pyrazol-3-yl)amino)pyrimidin-4-yl)thiazol-2-yl)phenyl)pyrrolidin-2-one] | < 6.30 | > 7.00
CN1CC[C@@](O)(c2cccc(-c3nc(-c4ccnc(Nc5ccn(C(F)(F)F)n5)n4)cs3)c2)C1=O [Example 257, (R)-3-Hydroxy-1-methyl-3-(3-(4-(2-((1-(trifluoromethyl)-1H-pyrazol-3-yl)amino)pyrimidin-4-yl)thiazol-2-yl)phenyl)pyrrolidin-2-one] | < 6.30 | > 7.00
CN1CC[C@@](O)(c2cccc(-c3nc(-c4ccnc(Nc5ccn(CC(F)F)n5)n4)cs3)c2)C1=O [Example 258, (R)-3-(3-(4-(2-((1-(2,2-Difluoroethyl)-1H-pyrazol-3-yl)amino)pyrimidin-4-yl)thiazol-2-yl)phenyl)-3-hydroxy-1-methylpyrrolidin-2-one] | 6.30 to 7.00 | > 7.00
CN1CC[C@@](O)(c2cccc(-c3nc(-c4ccnc(Nc5ccn(C6CC6)n5)n4)cs3)c2)C1=O [Example 259, (R)-3-(3-(4-(2-((1-Cyclopropyl-1H-pyrazol-3-yl)amino)pyrimidin-4-yl)thiazol-2-yl)phenyl)-3-hydroxy-1-methylpyrrolidin-2-one] | 6.30 to 7.00 | > 7.00
COCCn1ccc(Nc2nccc(-c3csc(-c4cccc([C@]5(O)CCN(C)C5=O)c4)n3)n2)n1 [Example 260, (R)-3-Hydroxy-3-(3-(4-(2-((1-(2-methoxyethyl)-1H-pyrazol-3-yl)amino)pyrimidin-4-yl)thiazol-2-yl)phenyl)-1-methylpyrrolidin-2-one] | 6.30 to 7.00 | > 7.00
CN1CC[C@@](O)(c2cccc(-c3nc(-c4ccnc(Nc5cc(Cl)n(C)n5)n4)cs3)c2)C1=O [Example 261, (R)-3-(3-(4-(2-((5-Chloro-1-methyl-1H-pyrazol-3-yl)amino)pyrimidin-4-yl)thiazol-2-yl)phenyl)-3-hydroxy-1-methylpyrrolidin-2-one] | 6.30 to 7.00 | > 7.00
CN(C)C(=O)Cn1ccc(Nc2nccc(-c3csc(-c4cccc([C@]5(O)CCN(C)C5=O)c4)n3)n2)n1 [Example 262, (R)-2-(3-((4-(2-(3-(3-Hydroxy-1-methyl-2-oxopyrrolidin-3-yl)phenyl)thiazol-4-yl)pyrimidin-2-yl)amino)-1H-pyrazol-1-y)-N,N-dimethylacetamide] | < 6.30 | > 7.00
CN1CC[C@@](O)(c2cccc(-c3nc(-c4ccnc(Nc5cnn(C6CC6)c5)n4)cs3)c2)C1=O [Example 263, (R)-3-(3-(4-(2-((1-Cyclopropyl-1H-pyrazol-4-yl)amino)pyrimidin-4-yl)thiazol-2-yl)phenyl)-3-hydroxy-1-methylpyrrolidin-2-one] | 6.30 to 7.00 | > 7.00
CN1CC[C@@](O)(c2cccc(-c3nc(-c4ccnc(Nc5cnn6ccccc56)n4)cs3)c2)C1=O [Example 264, (R)-3-Hydroxy-1-methyl-3-(3-(4-(2-(pyrazolo[1,5-a]pyridin-3-ylamino)pyrimidin-4-yl)thiazol-2-yl)phenyl)pyrrolidin-2-one] | > 7.00 | > 7.00
COCCn1cc(Nc2nccc(-c3csc(-c4cccc([C@]5(O)CCN(C)C5=O)c4)n3)n2)cn1 [Example 265, (R)-3-Hydroxy-3-(3-(4-(2-((1-(2-methoxyethyl)-1H-pyrazol-4-yl)amino)pyrimidin-4-yl)thiazol-2-yl)phenyl)-1-methylpyrrolidin-2-one] | 6.30 to 7.00 | > 7.00
CN1CC[C@@](O)(c2cccc(-c3nc(-c4ccnc(Nc5ccon5)n4)cs3)c2)C1=O [Example 266, (R)-3-Hydroxy-3-(3-(4-(2-(isoxazol-3-ylamino)pyrimidin-4-yl)thiazol-2-yl)phenyl)-1-methylpyrrolidin-2-one] | 6.30 to 7.00 | > 7.00
CN1CC[C@@](O)(c2cccc(-c3nc(-c4ccnc(Nc5ccnnc5)n4)cs3)c2)C1=O [Example 267, (R)-3-hydroxy-1-methyl-3-(3-(4-(2-(pyridazin-4-ylamino)pyrimidin-4-yl)thiazol-2-yl)phenyl)pyrrolidin-2-one] | < 6.30 | < 6.30
CCn1cc(Nc2nccc(-c3csc(-c4cccc([C@]5(O)CCN(C)C5=O)c4)n3)n2)cn1 [Example 268, (R)-3-(3-(4-(2-((1-ethyl-1H-pyrazol-4-yl)amino)pyrimidin-4-yl)thiazol-2-yl)phenyl)-3-hydroxy-1-methylpyrrolidin-2-one] | 6.30 to 7.00 | > 7.00
Cc1nn(C)cc1Nc1nccc(-c2csc(-c3cccc([C@]4(O)CCN(C)C4=O)c3)n2)n1 [Example 269, (R)-3-(3-(4-(2-((1,3-dimethyl-1H-pyrazol-4-yl)amino)pyrimidin-4-yl)thiazol-2-yl)phenyl)-3-hydroxy-1-methylpyrrolidin-2-one] | > 7.00 | > 7.00
